Reference: the NIST ThermoML archive (doi:10.1016/j.jct.2006.01.016)

Assays:
[1] = xn = mol fraction of the nth substance listed; conditions: 101 kPa, Liquid
[2] = 101 kPa, Liquid

CCCCn1cc[n+](C)c1.F[B-](F)(F)F [1-butyl-3-methylimidazolium tetrafluoroborate] + CO
[1]
Conditions | mass density, 298.15 K [kg/m3] | mass density, 303.15 K [kg/m3] | mass density, 308.15 K [kg/m3] | mass density, 313.15 K [kg/m3] | mass density, 318.15 K [kg/m3] | speed of sound, 298.15 K [m/s] | speed of sound, 303.15 K [m/s] | speed of sound, 308.15 K [m/s] | speed of sound, 313.15 K [m/s] | speed of sound, 318.15 K [m/s]
x1 = 0.0086 | 805.151 | 800.482 | 795.796 | 791.081 | 786.347 | – | 1105.3 | 1089.3 | 1073.5 | 1057.8
x1 = 0.0473 | 871.093 | 866.582 | 862.063 | 857.529 | 852.979 | – | 1162.4 | 1147.8 | 1133.1 | 1118.6
x1 = 0.0989 | 935.734 | 931.386 | 927.032 | 922.668 | 918.304 | – | 1224.6 | 1211 | 1197.5 | 1184
x1 = 0.2027 | 1020.75 | 1016.6 | 1012.46 | 1008.33 | 1004.19 | – | 1321.8 | 1309.2 | 1296.5 | 1284
x1 = 0.3516 | 1090.69 | 1086.81 | 1082.62 | 1079.1 | 1075.21 | 1423.6 | 1411.3 | 1399.1 | – | 1375
x1 = 0.4958 | 1131.97 | 1128.15 | 1124.35 | 1120.99 | 1117.11 | 1477 | 1465 | 1453.1 | 1441.8 | 1430.1
x1 = 0.6961 | 1168.33 | 1164.63 | 1160.96 | 1157.3 | 1153.66 | 1524.1 | 1512.2 | 1500.4 | 1488.8 | 1477.2
x1 = 0.7982 | 1181.54 | 1177.91 | 1174.28 | 1170.67 | 1167.07 | 1541.2 | 1529.5 | 1517.9 | 1506.3 | 1494.8
x1 = 1 | 1201.42 | 1197.88 | 1194.35 | 1190.82 | 1187.29 | 1576 | 1555.5 | 1543.9 | 1532.5 | 1521.2

CO [methanol]
[2]
Conditions | mass density [kg/m3] | speed of sound [m/s]
298.15 K | 786.531 | –
303.15 K | 781.808 | 1086.4
308.15 K | 777.066 | 1070.1
313.15 K | 772.283 | 1054
318.15 K | 767.474 | 1037.9

CCCCn1cc[n+](C)c1.F[B-](F)(F)F [1-butyl-3-methylimidazolium tetrafluoroborate]
[2]
Conditions | mass density [kg/m3] | speed of sound [m/s]
298.15 K | 1201.42 | 1576
303.15 K | 1197.88 | 1555.5
308.15 K | 1194.35 | 1543.9
313.15 K | 1190.82 | 1532.5
318.15 K | 1187.29 | 1521.2

CC#N [acetonitrile] + CCCCn1cc[n+](C)c1.F[B-](F)(F)F
[1], x2 = 0
Conditions | mass density [kg/m3] | speed of sound [m/s]
298.15 K | 776.533 | 1278.6
303.15 K | 771.116 | 1258.7
308.15 K | 765.66 | 1238.7
313.15 K | 760.162 | 1218.5
318.15 K | 754.462 | 1198.3

CO [methanol] + CCCCn1cc[n+](C)c1.F[B-](F)(F)F
[1], x2 = 0
Conditions | mass density [kg/m3] | speed of sound [m/s]
298.15 K | 786.531 | –
303.15 K | 781.808 | 1086.4
308.15 K | 777.066 | 1070.1
313.15 K | 772.283 | 1054
318.15 K | 767.474 | 1037.9

CCCCn1cc[n+](C)c1.F[B-](F)(F)F [1-butyl-3-methylimidazolium tetrafluoroborate] + CC#N
[1]
Conditions | mass density, 298.15 K [kg/m3] | mass density, 303.15 K [kg/m3] | mass density, 308.15 K [kg/m3] | mass density, 313.15 K [kg/m3] | mass density, 318.15 K [kg/m3] | speed of sound, 298.15 K [m/s] | speed of sound, 303.15 K [m/s] | speed of sound, 308.15 K [m/s] | speed of sound, 313.15 K [m/s] | speed of sound, 318.15 K [m/s]
x1 = 0.0103 | 794.416 | 789.093 | 783.745 | 778.368 | 772.971 | 1289.2 | 1269.3 | 1249.6 | 1230 | 1210.3
x1 = 0.0442 | 845.059 | 839.982 | 834.883 | 829.765 | 824.63 | 1315.7 | 1297 | 1278.2 | 1259.5 | 1240.8
x1 = 0.1032 | 913.689 | 908.908 | 904.123 | 899.327 | 894.531 | 1354.8 | 1337.2 | 1319.7 | 1302.3 | 1284.9
x1 = 0.2015 | 994.016 | 989.579 | 985.147 | 980.715 | 976.287 | 1407.7 | 1391.8 | 1375.8 | 1359.6 | 1344.1
x1 = 0.2931 | 1045.58 | 1041.36 | 1037.15 | 1032.94 | 1028.74 | 1445.2 | 1430.2 | 1415.2 | 1400.5 | 1385.8
x1 = 0.3935 | 1086.98 | 1082.93 | 1078.89 | 1074.86 | 1070.84 | 1476.8 | 1462.7 | 1448.6 | 1434.6 | 1420.8
x1 = 0.5352 | 1128.52 | 1124.64 | 1120.78 | 1116.92 | 1113.08 | 1509.2 | 1495.9 | 1482.6 | 1469.7 | 1456.9
x1 = 0.7043 | 1162.31 | 1158.57 | 1154.85 | 1151.13 | 1147.43 | 1535.9 | – | 1511.1 | 1498.8 | 1486.6
x1 = 1 | 1201.42 | 1197.88 | 1194.35 | 1190.82 | 1187.29 | 1576 | 1555.5 | 1543.9 | 1532.5 | 1521.2

CC#N [acetonitrile]
[2]
Conditions | mass density [kg/m3] | speed of sound [m/s]
298.15 K | 776.533 | 1278.6
303.15 K | 771.116 | 1258.7
308.15 K | 765.66 | 1238.7
313.15 K | 760.162 | 1218.5
318.15 K | 754.462 | 1198.3
